Measurements: patent US8017611B2, “Pyridine and pyrazine derivatives -083” (AstraZeneca AB, priority 2007, dated 2011)
pIC50: −log10 of the molar value. Marks after values point to notes of the source that are not given here.

Molecular target: T1, recombinant Axl tyrosine kinase (Homo sapiens, UniProt P30530)
T1 construct: encompassing amino acids 473 to 894 of Axl; GST (N); made in house; host or cells: SF126 insect cells
T1 sequence (P30530 473-894): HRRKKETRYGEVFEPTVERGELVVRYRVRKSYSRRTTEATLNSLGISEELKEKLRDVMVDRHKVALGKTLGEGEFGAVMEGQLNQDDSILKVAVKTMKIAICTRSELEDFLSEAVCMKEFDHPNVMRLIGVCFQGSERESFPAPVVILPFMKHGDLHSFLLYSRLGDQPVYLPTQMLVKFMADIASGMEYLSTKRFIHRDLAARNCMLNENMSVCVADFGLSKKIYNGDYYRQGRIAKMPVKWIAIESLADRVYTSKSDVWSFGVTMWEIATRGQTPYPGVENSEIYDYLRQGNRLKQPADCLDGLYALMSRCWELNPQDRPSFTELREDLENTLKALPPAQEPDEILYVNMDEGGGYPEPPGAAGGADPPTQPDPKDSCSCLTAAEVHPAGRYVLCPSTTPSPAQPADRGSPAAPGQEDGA
Experiment: In vitro Axl kinase assay (AlphaScreen), Test (a)
Format: biochemical
Conditions: for % of Axl tyrosine kinase activity inhibited at a concentration of 30 μM: test compound at 30 μM

[1] = test compound at 1 μM, first value quoted

Row | Compound | % Axl tyrosine kinase inhibition at 1 μM concentration [1] | also measured
1 | COc1cccc2nc(-c3cc(-c4cn(C5CCN(C)CC5)nc4CO)cnc3N)oc12 [Example 41.42] | 100.0% | pIC50 (Test (a), read-out: IC50 versus Axl tyrosine kinase): ~9.70
2 | COCc1nn(C2CCN(C)CC2)cc1-c1cnc(N)c(-c2nc3cccc(OC)c3o2)c1 [Example 41.43] | 100.0% | 
3 | Nc1ncc(-c2ccc(OCCCN3CCCC3)cc2)cc1-c1nc2cccnc2o1 [Example 42, 3-oxazolo[5,4-b]pyridin-2-yl-5-[4-(3-pyrrolidin-1-ylpropoxy)phenyl]pyridin-2-amine] |  | inhibition at 1 µM (test compound at 1 μM, first value quoted, read-out: % Axl tyrosine kinase inhibition at 1 μM concentration): 99.7%
4 | Nc1ncc(-c2ccc(OCCN3CCCC3)cc2)cc1-c1nc2ncccc2o1 [Example 43B.1] | 99.8% | 
5 | CN(C)CCOc1ccc(-c2cnc(N)c(-c3nc4ncccc4o3)c2)cc1 [Example 43B.2] | 96.9% | 
6 | CN1CCC(Oc2ccc(-c3cnc(N)c(-c4nc5ncccc5o4)c3)cc2)C1 (centres unmarked) [Example 43B.4] | 99.3% | 
7 | CN1CCC[C@H]1COc1ccc(-c2cnc(N)c(-c3nc4ncccc4o3)c2)cc1 [Example 43B.5] | 99.4% | 
8 | Nc1ncc(-c2ccc(OCCN3CCOCC3)cc2)cc1-c1nc2ncccc2o1 [Example 43B.6] | 96.4% | 
9 | Nc1ncc(-c2ccc(OCCN3CCCCC3)cc2)cc1-c1nc2ncccc2o1 [Example 43B.8] | 19.0^††† % | % of Axl tyrosine kinase activity inhibited at a concentration of 30 μM: ^†††the compound disclosed in Example 43B.8 inhibited 98% of Axl tyrosine kinase activity at a concentration of 30 μM.
10 | CN1CCCC(Oc2ccc(-c3cnc(N)c(-c4nc5ncccc5o4)c3)cc2)C1 (centres unmarked) [Example 43B.9] | 98.2% | 
11 | CN(C)CCCOc1ccc(-c2cnc(N)c(-c3nc4ncccc4o3)c2)cc1 [Example 43B.10] | 98.4% | 
12 | CN1CCC(Oc2ccc(-c3cnc(N)c(-c4nc5ncccc5o4)c3)cc2)CC1 [Example 43B.11] | 98.1% | 
13 | CN1CCN(CCCOc2ccc(-c3cnc(N)c(-c4nc5ncccc5o4)c3)cc2)CC1 [Example 43B.14] | 95.1% | 
14 | Nc1ncc(-c2ccc(OCCCN3CCS(=O)(=O)CC3)cc2)cc1-c1nc2ncccc2o1 [Example 43B.16] | 95.3% | 
15 | CN1CCCC1CCOc1ccc(-c2cnc(N)c(-c3nc4ncccc4o3)c2)cc1 (centres unmarked) [Example 43B.17] | 99.5% | 
16 | Nc1ncc(-c2ccc(OCCCN3CCCC3)cc2)cc1-c1nc2ncccc2o1 [Example 43B.18] | 99.9% | 

Row | Compound | % Axl tyrosine kinase inhibition at 1 μM concentration [1] | also measured
17 | Nc1ncc(-c2ccc(OCCCN3CCOCC3)cc2)cc1-c1nc2ncccc2o1 [Example 43B.19] | 95.8% | 
18 | CN1C2CCC1CC(Oc1ccc(-c3cnc(N)c(-c4nc5ncccc5o4)c3)cc1)C2 (centres unmarked) [Example 43B.21] | 99.6% | 
19 | Nc1ncc(-c2ccc(OCCOCCN3CCOCC3)cc2)cc1-c1nc2ncccc2o1 [Example 43B.22] | 97.7% | 
20 | CN1CCN(S(=O)(=O)CCCOc2ccc(-c3cnc(N)c(-c4nc5ncccc5o4)c3)cc2)CC1 [Example 43B.24] | 98.2% | 
21 | NCCOc1ccc(-c2cnc(N)c(-c3nc4ncccc4o3)c2)cc1 [Example 43B.25] | 97.5% | 
22 | Nc1ncc(-c2ccc(OC[C@H]3CCCN3)cc2)cc1-c1nc2ncccc2o1 [Example 43B.28] | 98.7% | 
23 | Nc1ncc(-c2ccc(OCCN3CCNCC3)cc2)cc1-c1nc2ncccc2o1 [Example 43B.29] | 93.6% | 
24 | Nc1ncc(-c2ccc(OC3CCCNC3)cc2)cc1-c1nc2ncccc2o1 (centres unmarked) [Example 43B.30] | 98.9% | 
25 | NCCCOc1ccc(-c2cnc(N)c(-c3nc4ncccc4o3)c2)cc1 [Example 43B.31] | 97.1% | 
26 | CNCCCOc1ccc(-c2cnc(N)c(-c3nc4ncccc4o3)c2)cc1 [Example 43B.32] | 98.6% | 
27 | Nc1ncc(-c2ccc(OC3CCNCC3)cc2)cc1-c1nc2ncccc2o1 [Example 43B.33] | 98.1% | 
28 | NCCCCOc1ccc(-c2cnc(N)c(-c3nc4ncccc4o3)c2)cc1 [Example 43B.34] | 95.7% | 
29 | Nc1ncc(-c2ccc(OCC3CCNCC3)cc2)cc1-c1nc2ncccc2o1 [Example 43B.36] | 98.3% | 
30 | Nc1ncc(-c2ccc(OCCOC3CCNCC3)cc2)cc1-c1nc2ncccc2o1 [Example 43B.37] | 97.6% | 
31 | Nc1ncc(-c2ccc(OCCOC3CNC3)cc2)cc1-c1nc2ncccc2o1 [Example 43B.39] | 98.2% | 
32 | Nc1ncc(-c2ccc(OCCC3CCCCN3)cc2)cc1-c1nc2ncccc2o1 (centres unmarked) [Example 43B.40] | 97.7% | 

Second part, led by results:

Row | % Axl tyrosine kinase inhibition at 1 μM concentration [1] | Compound | also measured
33 | 97.2% | Nc1ncc(-c2ccc(OCCN3CCOCC3)cc2)cc1-c1nc2cccnc2o1 [Example 43A.2] | 
34 | 98.7% | Nc1ncc(-c2ccc(OCCN3CCCC3)cc2)cc1-c1nc2cccnc2o1 [Example 43A.3] | 
35 | 99.6% | CCN(CC)CCOc1ccc(-c2cnc(N)c(-c3nc4ncccc4o3)c2)cc1 [Example 43B.3] | 
36 | 98.1% | CN1CCN(CCOc2ccc(-c3cnc(N)c(-c4nc5ncccc5o4)c3)cc2)CC1 [Example 43B.7] | 
37 | 98.8% | CN1CCCC(COc2ccc(-c3cnc(N)c(-c4nc5ncccc5o4)c3)cc2)C1 (centres unmarked) [Example 43B.12] | 
38 | 96.8% | CN1CCCCC1CCOc1ccc(-c2cnc(N)c(-c3nc4ncccc4o3)c2)cc1 (centres unmarked) [Example 43B.13] | 
39 | 86.0% | CS(=O)(=O)N1CCN(CCCOc2ccc(-c3cnc(N)c(-c4nc5ncccc5o4)c3)cc2)CC1 [Example 43B.15] | 
40 | 98.9% | CCN(CC)CCCOc1ccc(-c2cnc(N)c(-c3nc4ncccc4o3)c2)cc1 [Example 43B.20] | 
41 | 95.3% | Nc1ncc(-c2ccc(OCC#CCN3CCS(=O)(=O)CC3)cc2)cc1-c1nc2ncccc2o1 [Example 43B.23] | 
42 | 97.7% | CNCCOc1ccc(-c2cnc(N)c(-c3nc4ncccc4o3)c2)cc1 [Example 43B.26] | 
43 | 98.2% | Nc1ncc(-c2ccc(OC3CCNC3)cc2)cc1-c1nc2ncccc2o1 (centres unmarked) [Example 43B.27] | 
44 | 95.9% | Nc1ncc(-c2ccc(OCCC3CCNCC3)cc2)cc1-c1nc2ncccc2o1 [Example 43B.35] | 
45 | 8.1^†††† % | Nc1ncc(-c2ccc(OCCCN3CCNCC3)cc2)cc1-c1nc2ncccc2o1 [Example 43B.38] | % of Axl tyrosine kinase activity inhibited at a concentration of 30 μM: ^††††the compound disclosed in Example 43B.38 inhibited 95.3% of Axl tyrosine kinase activity at a concentration of 30 μM.
46 | 99.0% | Nc1ncc(-c2ccc(OCC3CCCNC3)cc2)cc1-c1nc2ncccc2o1 (centres unmarked) [Example 43B.41] | 
47 | 96.6% | CC1CN(CCCOc2ccc(-c3cnc(N)c(-c4nc5ncccc5o4)c3)cc2)CC(C)N1 (centres unmarked) [Example 43B.42] | 
